Test results as given in patent US10183030B2, “17α,21-diesters of cortexolone for use in the treatment of tumors” (COSMO TECHNOLOGIES LTD., priority 2014, dated 2019).
Like-named read-outs stand apart in the source and are kept apart here.

Assays:
[1] = test system: Panc1 (AR+) pancreatic cancer cells; test: ATP-dependent proliferation/viability assay, Panc1; format: cell-based; settings: Homo sapiens, read-out: IC50
Procedure: (§1) The experimental method consisted of: • 1. […] After 24 hours, 10 nM DHT (dihydrotestosterone) with or without anti-androgen compounds, or DMSO vehicle (negative control) was added to the cultures. • 3.
(§2) Each compounds was titrated from 3 uM to 200 uM.

[2] = test system: MiaPaca2 (AR low) pancreatic cancer cells; test: ATP-dependent proliferation/viability assay, MiaPaca2; format: cell-based; settings: Homo sapiens, read-out: IC50
Procedure: as §1, §2

[3] = test system: 22Rv1 prostate cancer cells; test: In vitro proliferation, 22Rv1; format: cell-based; settings: Homo sapiens, Table III, read-out: in vitro proliferation IC50 (μ/M)
Procedure: as §2

MDA-MB-231 TNBC cells = test: In vitro proliferation / cytotoxic assay, MDA-MB-231; format: cell-based; settings: Homo sapiens; MDA-MB-231 (ER−PR−GR++); 72 hours; Table VI; unit inferred; read-out: IC50 on breast cancer cells
Procedure: After 72 hours incubation cell were harvested, lysed and viability determined using the cell titer glow assay for viability.

HT29 colon cancer cells = test: In vitro proliferation, HT29 (cancer cell panel); format: cell-based; settings: Homo sapiens
Procedure: as §2

Glucocorticoid Receptor = target: T1, Glucocorticoid Receptor (Homo sapiens, UniProt P04150); test: GR reporter assay, antagonist mode; format: cell-based; settings: FIG. 7
T1 construct: endogenous in cells; host or cells: human kidney epithelial cells
T1 sequence (P04150 1-777): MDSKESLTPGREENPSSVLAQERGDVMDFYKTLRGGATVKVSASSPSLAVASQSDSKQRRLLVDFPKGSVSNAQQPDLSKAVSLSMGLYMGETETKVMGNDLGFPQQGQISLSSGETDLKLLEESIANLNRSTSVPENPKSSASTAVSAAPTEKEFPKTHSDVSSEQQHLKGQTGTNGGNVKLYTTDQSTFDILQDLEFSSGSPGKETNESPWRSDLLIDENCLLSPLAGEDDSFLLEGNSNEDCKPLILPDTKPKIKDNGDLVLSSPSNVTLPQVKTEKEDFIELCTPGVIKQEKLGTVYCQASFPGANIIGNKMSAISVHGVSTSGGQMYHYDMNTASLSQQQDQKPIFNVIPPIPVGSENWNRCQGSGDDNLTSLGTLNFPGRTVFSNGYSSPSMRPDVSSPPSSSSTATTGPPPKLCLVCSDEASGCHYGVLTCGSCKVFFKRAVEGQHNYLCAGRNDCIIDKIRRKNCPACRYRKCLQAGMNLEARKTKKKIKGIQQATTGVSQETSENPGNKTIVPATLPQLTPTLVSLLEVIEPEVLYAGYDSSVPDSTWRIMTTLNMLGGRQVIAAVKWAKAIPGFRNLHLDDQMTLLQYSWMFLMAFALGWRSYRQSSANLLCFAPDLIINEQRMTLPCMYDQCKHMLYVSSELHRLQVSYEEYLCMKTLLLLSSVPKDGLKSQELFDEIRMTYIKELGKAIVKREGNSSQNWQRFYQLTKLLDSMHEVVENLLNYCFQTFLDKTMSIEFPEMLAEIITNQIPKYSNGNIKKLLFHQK
Procedure: The androgen and glucocorticoid hormones elicit divergent and often opposing effects in cells, tissues, and animals. […] CB-03-10 GR antagonist and agonist activities were tested in an in vitro assay. Briefly, human kidney epithelial cells were transfected with DNA construct containing GR binding sites linked to luminescent based reporter molecule. After 24 hours, cells were treated under antagonist or agonist modes. After an additional 24 hours, luminescence which is proportional to GR agonist transcriptional activity was quantitated.
Antagonist Assay was based on inhibition of luminescence induced by Dexamethasone (Dex).
The antagonist activity of CB-03-10 was compared to a known GR antagonist, Mifepristone (also called RU486) as shown in FIG. 7.

MiaPaca2 cells = test: Annexin V / propidium iodide apoptosis assay; format: cell-based, human; settings: 24 hours, control 11%
Procedure: CB-03-10 was evaluated to determine if the mechanism of cytotoxicity on cancer cell lines was mediated by apoptosis and cell cycle arrest. Cancer cell lines were seeded in 6-well flat bottom plates. After 24 hours test compounds or DMSO vehicle (negative control) were added. After an additional 24 hours cells were scraped and stained with fluorescein conjugated Annexin V and propidium iodide and analyzed by flow cytometry.

[4] = test system: Caspase 8, 9 and 3/7 in LNCaP cells; test: Caspase activity in LNCaP cells; format: cell-based, human; settings: 24 hours
Procedure: After 24 hours test compounds were added to cells, Gemcitabine (a known pancreatic cancer chemotherapeutic agent) and DMSO were used as positive and negative control, respectively. After 8, 24, & 48 hours incubation with test compounds, cells were lysed in buffer containing the caspase 3/7 or 8 or 9 substrate and a stable luciferase in proprietary buffers. The lysates were transferred to white opaque plates before measuring luminescence in a Tecan Safire instrument. Parallel plates treated identically, were used to determine viable cells. All caspase activities were corrected for the number of viable cells.
Same assay was repeated using LNCaP prostate cancer cell lines (FIG. 12). […] The results are shown in FIG. 12 at 24 hours incubation when the caspase activities peaked.

[5] = In vitro metabolism in human plasma; format: in vitro ADME; settings: 37° C.; FIG. 13
Procedure: To obtain some insights on the metabolism of CB-03-10 in human and rat plasma, a specific assay was designed. Briefly the compound was incubated at different time in human and rat plasma at 37° C. After incubation the samples were tested for presence of the intact compound by liquid chromatography.

[6] = In vivo pharmacokinetics in mouse plasma; settings: mice; iv 20 mg/kg, SC 40 mg/kg, PO 40 mg/kg
Procedure: The pharmacokinetic of CB-03-10 was evaluated in plasma of mice after intravenous (IV), subcutaneous (SC) and oral administration (PO).
Mice (3 per group) were administered with the following doses, blood was collected at the indicated times. Plasma samples were analyzed by HPLC-MS/MS.

[7] = test system: PSA secretion from LNCaP prostate cancer cells; test: PSA secretion from LNCaP cells (Elisa); format: cell-based; settings: Homo sapiens, 48 hours, read-out: IC50, inhibition of PSA secretion
Procedure: Prostate-specific antigen, or PSA, is a protein produced by cells of the prostate gland. The PSA test measures the level of PSA in a person's blood. The blood level of PSA is often elevated in men with prostate cancer and it used as surrogate marker to test prostate cancer progression in human population. After the observation that CB-03-10 was able to inhibit in vivo the growth of prostate cancer, the capability of the compound to inhibit in vitro PSA secretion from cancer cells was determined. […] After 48 hours incubation with test compounds, supernatants were harvested and tested with an Elisa assay for PSA and same cells were lysed for cell viability assessment.

Compound `CCCCC(=O)O[C@]1(C(=O)COC(=O)CC)CC[C@H]2[C@@H]3CCC4=CC(=O)CC[C@]4(C)[C@H]3CC[C@@]21C` [CB-03-10, cortexolone 17α-valerate-21-propionate] has an IC50 ([1]; PANC-1, 72 h, Panc1, 10 nM DHT, 3 days, Examples 3-4, Experiment 1) of 66 µM, an IC50 ([1]; PANC-1, Panc1, Example 7, Experiment 1) of 68 µM and an IC50 ([2]; MIA PaCa-2, 72 h, MiaPaca2, 10 nM DHT, 3 days, Examples 3-4, Experiment 1) of 43 µM. The IC50 ([2]; MIA PaCa-2, MiaPaca2, Example 7, Experiment 1) was 34 µM, the IC50 [3] was 18 µM and the IC50 (MDA-MB-231 TNBC cells) was 106 µM. The IC50 (HT29 colon cancer cells; HT-29, read-out: In vitro proliferation IC50 (micro Molar)) was 14 µM, the IC50 (HT29 colon cancer cells; HT-29, read-out: in vitro proliferation IC50 (μ/M)) was 14 µM and the “GR antagonist potency relative to RU486” value (Glucocorticoid Receptor) was 10 times less. For the same compound, the GR antagonist activity (Glucocorticoid Receptor; inhibition of luminescence induced by Dexamethasone) was “potent antagonist”, the “cells in apoptosis (early and late), total” value (MiaPaca2 cells) was 28% and the “induction of Initiator (8 and 9) and Effector (3/7) caspase activities” value [4] was “better than Enzalutamide”. For the same compound, the “degradation in human plasma” value [5] was “rapidly degraded to CB-03-05”, the “plasma level of parent compound” value [6] was “undetectable in plasma even after 1 hour regardless of the administration route” and the IC50 [7] was 9 µM.
